Source: US20260184710A1, “CASITAS B-LINEAGE LYMPHOMA PROTOONCOGENE B (CBL-B) DEGRADING COMPOUNDS AND ASSOCIATED METHODS OF USE” (Arvinas Operations, Inc., priority 2022, published 2026)

What was measured:
Cbl-b [1] = target: T1, Cbl-b (Homo sapiens, UniProt Q13191); assay: Cbl-b Degradation Method A (FACS, anti-Cbl-b antibody staining); assay type: cell-based; conditions: Cbl-b-HiBit KI Jurkat Cells, incubated at least 20 hours; for DC50: half maximal degradation, read-out: Cbl-b Degredation Method A IC50; for Dmax: Jurkat, maximum degradation observed, read-out: Cbl-b Degredation Method A Dmax (%)
T1 construct: Cbl-b-HiBit KI Jurkat Cells were purchased from Promega; host or cells: Cbl-b-HiBiT knock-in Jurkat cells
T1 sequence (Q13191 whole entry): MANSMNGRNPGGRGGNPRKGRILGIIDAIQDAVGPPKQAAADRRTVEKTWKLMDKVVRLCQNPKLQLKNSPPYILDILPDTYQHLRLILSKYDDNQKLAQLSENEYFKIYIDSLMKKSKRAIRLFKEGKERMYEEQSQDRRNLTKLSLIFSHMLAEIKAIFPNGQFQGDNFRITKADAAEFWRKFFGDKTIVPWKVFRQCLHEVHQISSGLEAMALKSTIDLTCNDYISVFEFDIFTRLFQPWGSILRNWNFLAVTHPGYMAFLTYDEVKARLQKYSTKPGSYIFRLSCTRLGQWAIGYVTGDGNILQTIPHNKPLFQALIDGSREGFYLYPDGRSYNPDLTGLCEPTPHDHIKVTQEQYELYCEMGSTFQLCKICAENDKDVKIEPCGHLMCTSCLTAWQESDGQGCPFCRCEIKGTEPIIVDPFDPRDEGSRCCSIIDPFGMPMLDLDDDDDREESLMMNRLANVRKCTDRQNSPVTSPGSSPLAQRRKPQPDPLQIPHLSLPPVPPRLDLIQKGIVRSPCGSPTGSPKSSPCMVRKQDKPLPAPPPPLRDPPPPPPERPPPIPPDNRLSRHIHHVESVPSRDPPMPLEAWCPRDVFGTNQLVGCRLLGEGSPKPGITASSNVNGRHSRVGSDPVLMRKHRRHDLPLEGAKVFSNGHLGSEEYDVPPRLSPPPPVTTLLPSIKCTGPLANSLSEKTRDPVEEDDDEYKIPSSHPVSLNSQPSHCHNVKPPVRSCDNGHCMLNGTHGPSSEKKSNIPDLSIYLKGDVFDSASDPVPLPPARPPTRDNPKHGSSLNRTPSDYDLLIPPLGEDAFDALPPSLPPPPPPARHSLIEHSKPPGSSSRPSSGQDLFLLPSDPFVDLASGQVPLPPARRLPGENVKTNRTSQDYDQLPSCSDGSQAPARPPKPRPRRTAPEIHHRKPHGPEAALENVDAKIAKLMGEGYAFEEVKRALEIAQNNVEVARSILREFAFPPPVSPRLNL
How it was run: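 Readout is flow cytometry of fixed, permeabilized cells immunostained for Cbl-b (primary 1:200, AF488 secondary). Cells were Cbl-b-HiBit knock-in Jurkat, exposed to compound ≥20 h at 37 °C; half-maximal degradation concentration (DC50) and maximal degradation (Dmax) calculated relative to control.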

Cbl-b [2] = target: T1, Cbl-b; assay: Cbl-b Degradation Method B (Nano-Glo HiBiT lytic detection); assay type: cell-based; conditions: Cbl-b-HiBit KI Jurkat Cells, incubated at least 6-24 hours; for DC50: half maximal degradation, read-out: Cbl-b Degredation Method B IC50; for Dmax: maximum degradation observed, read-out: Cbl-b Degredation Method B Dmax (%)
How it was run: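 An 11-point, 3-fold compound dilution was applied for 6-24 hours to Jurkat cells carrying HiBiT-tagged endogenous Cbl-b. Lytic HiBiT luminescence quantified residual protein. Outputs are DC50 and Dmax relative to DMSO control.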

Row | SMILES | DC50 (Cbl-b [1]) | Dmax (Cbl-b [1]) | DC50 (Cbl-b [2]) | Dmax (Cbl-b [2])
1 | Cc1cc(N2CCC(CN3CCC4(C3)CN(c3cc5c(c(C(F)(F)F)c3)CN(c3cccc([C@]6(Cc7nncn7C)C[C@@H](C#N)C6)c3)C5=O)C4)CC2)c(F)c2c1C(=O)N(C1CCC(=O)NC1=O)C2 (some centres unmarked) [Example 176, (1r,3r)-3-(3-{6-[6-({1-[2-(2,6-dioxopiperidin-3-yl)-4-fluoro-7-methyl-1-oxo-2,3-dihydro-1H-isoindol-5-yl]piperidin-4-yl}methyl)-2,6-diazaspiro[3.4]octan-2-yl]-1-oxo-4-(trifluoromethyl)-2,3-dihydro-1H-isoindol-2-yl}phenyl)-3-[(4-methyl-4H-1,2,4-triazol-3-yl)methyl]cyclobutane-1-carbonitrile] | 5 to 50 nM | 35 to 70% | < 5 nM | 35 to 70%
2 | CC1c2nc(N3CCC(OC4CCC(CN5CCN(Cc6cc7c(c(C(F)(F)F)c6)CN(c6cccc(C8(Cc9nncn9C)COC8)c6)C7=O)C[C@H]5C)CC4)CC3)ccc2C(=O)N1C1CCC(=O)NC1=O (stereo partly drawn) [Example 238, 3-[7-methyl-5-oxo-2-(4-{[(1rs,4rs)-4-{[(2R)-2-methyl-4-{[2-(3-{3-[(4-methyl-4H-1,2,4-triazol-3-yl)methyl]oxetan-3-yl}phenyl)-3-oxo-7-(trifluoromethyl)-2,3-dihydro-1H-isoindol-5-yl]methyl}piperazin-1-yl]methyl}cyclohexyl]oxy}piperidin-1-yl)-5H,6H,7H-pyrrolo[3,4-b]pyridin-6-yl]piperidine-2,6-dione] | 5 to 50 nM | 35 to 70% | < 5 nM | 35 to 70%
3 | Cn1cnnc1CC1(c2cccc(N3Cc4c(cc(N5CCN(C[C@H]6CC[C@H](OC7CCN(c8ccc9c(c8F)CN(C8CCC(=O)NC8=O)C9=O)CC7)CC6)CC5)cc4C(F)(F)F)C3=O)c2)COC1 (some centres unmarked) [Example 139, 3-[4-fluoro-1-oxo-5-(4-{[(1r,4r)-4-({4-[2-(3-{3-[(4-methyl-4H-1,2,4-triazol-3-yl)methyl]oxetan-3-yl}phenyl)-3-oxo-7-(trifluoromethyl)-2,3-dihydro-1H-isoindol-5-yl]piperazin-1-yl}methyl)cyclohexyl]oxy}piperidin-1-yl)-2,3-dihydro-1H-isoindol-2-yl]piperidine-2,6-dione] | 5 to 50 nM | 35 to 70% | 5 to 50 nM | 35 to 70%
4 | Cn1cnnc1CC1(c2cccc(N3Cc4c(cc(N5CC6(CCN(CC7CCN(c8ccc9c(c8Cl)CN(C8CCC(=O)NC8=O)C9=O)CC7)CC6)C5)cc4C(F)(F)F)C3=O)c2)COC1 (centres unmarked) [Example 4, 3-{4-chloro-5-[4-({2-[2-(3-{3-[(4-methyl-4H-1,2,4-triazol-3-yl)methyl]oxetan-3-yl}phenyl)-3-oxo-7-(trifluoromethyl)-2,3-dihydro-1H-isoindol-5-yl]-2,7-diazaspiro[3.5]nonan-7-yl}methyl)piperidin-1-yl]-1-oxo-2,3-dihydro-1H-isoindol-2-yl}piperidine-2,6-dione] | < 5 nM | 35 to 70% | < 5 nM | 35 to 70%
5 | Cn1cnnc1C[C@]1(c2cccc(N3Cc4c(cc(N5CC6(CCN(CC7(F)CCN(c8ccc9c(c8)C(=O)N(C8CCC(=O)NC8=O)C9=O)CC7)CC6)C5)cc4C(F)(F)F)C3=O)c2)C[C@H](C#N)C1 (some centres unmarked) [Example 172, (1r,3r)-3-(3-{6-[7-({1-[2-(2,6-dioxopiperidin-3-yl)-1,3-dioxo-2,3-dihydro-1H-isoindol-5-yl]-4-fluoropiperidin-4-yl}methyl)-2,7-diazaspiro[3.5]nonan-2-yl]-1-oxo-4-(trifluoromethyl)-2,3-dihydro-1H-isoindol-2-yl}phenyl)-3-[(4-methyl-4H-1,2,4-triazol-3-yl)methyl]cyclobutane-1-carbonitrile] | 5 to 50 nM | 35 to 70% | 5 to 50 nM | 35 to 70%

Results, then the molecule that gave them:

Row | DC50 (Cbl-b [1]) | Dmax (Cbl-b [1]) | DC50 (Cbl-b [2]) | Dmax (Cbl-b [2]) | SMILES
6 | 5 to 50 nM | < 35% | 5 to 50 nM | < 35% | Cn1cnnc1CC1(c2cccc(N3Cc4c(cc(CN5CCC[C@H](CN6CCC(CN7CC8(C7)CN(c7ccc9c(c7)C(=O)N(C7CCC(=O)NC7=O)C9=O)C8)CC6)C5)cc4C(F)(F)F)C3=O)c2)COC1 (stereo partly drawn) [Example 114, 2-(2,6-dioxopiperidin-3-yl)-5-{6-[(1-{[(3R)-1-{[2-(3-{3-[(4-methyl-4H-1,2,4-triazol-3-yl)methyl]oxetan-3-yl}phenyl)-3-oxo-7-(trifluoromethyl)-2,3-dihydro-1H-isoindol-5-yl]methyl}piperidin-3-yl]methyl}piperidin-4-yl)methyl]-2,6-diazaspiro[3.3]heptan-2-yl}-2,3-dihydro-1H-isoindole-1,3-dione]
7 | > 500 nM |  | > 500 nM |  | Cn1cnnc1CC1(c2cccc(N3Cc4c(cc(CN5CCC(CN6CC7(C6)CN(c6ccc8c(c6)C(=O)N(C6CCC(=O)NC6=O)C8=O)C7)CC5)cc4C(F)(F)F)C3=O)c2)COC1 (centres unmarked) [Example 31, 2-(2,6-dioxopiperidin-3-yl)-5-{6-[(1-{[2-(3-{3-[(4-methyl-4H-1,2,4-triazol-3-yl)methyl]oxetan-3-yl}phenyl)-3-oxo-7-(trifluoromethyl)-2,3-dihydro-1H-isoindol-5-yl]methyl}piperidin-4-yl)methyl]-2,6-diazaspiro[3.3]heptan-2-yl}-2,3-dihydro-1H-isoindole-1,3-dione]
8 | 5 to 50 nM |  | 5 to 50 nM | > 70% | C[C@H]1C[C@@H](CN2CCN(c3ccc4c(c3)C(=O)N(C3CCC(=O)NC3=O)C4=O)CC2)CN(Cc2cc3c(c(C(F)(F)F)c2)CN(c2cccc(C4(Cc5nncn5C)COC4)c2)C3=O)C1 (stereo partly drawn) [Example 85, 2-(2,6-dioxopiperidin-3-yl)-5-(4-{[(3R,5S)-5-methyl-1-{[2-(3-{3-[(4-methyl-4H-1,2,4-triazol-3-yl)methyl]oxetan-3-yl}phenyl)-3-oxo-7-(trifluoromethyl)-2,3-dihydro-1H-isoindol-5-yl]methyl}piperidin-3-yl]methyl}piperazin-1-yl)-2,3-dihydro-1H-isoindole-1,3-dione]
9 | 5 to 50 nM | 35 to 70% | 5 to 50 nM | 35 to 70% | Cn1cnnc1C[C@]1(c2cccc(N3Cc4c(cc(N5CC6(CCN(CC7CCN(c8ccc9c(c8)C(=O)N(C8CCC(=O)NC8=O)C9=O)CC7)CC6)C5)cc4C(F)(F)F)C3=O)c2)C[C@@H](C#N)C1 (some centres unmarked) [Example 137, (1s,3s)-3-(3-{6-[7-({1-[2-(2,6-dioxopiperidin-3-yl)-1,3-dioxo-2,3-dihydro-1H-isoindol-5-yl]piperidin-4-yl}methyl)-2,7-diazaspiro[3.5]nonan-2-yl]-1-oxo-4-(trifluoromethyl)-2,3-dihydro-1H-isoindol-2-yl}phenyl)-3-[(4-methyl-4H-1,2,4-triazol-3-yl)methyl]cyclobutane-1-carbonitrile]
10 | > 500 nM |  | > 500 nM |  | Cn1cnnc1CC1(c2cccc(N3Cc4c(cc(CN5CCC[C@H](CN6CCC7(CC6)CCN(c6ccc8c(c6)C(=O)N(C6CCC(=O)NC6=O)C8=O)CC7)C5)cc4C(F)(F)F)C3=O)c2)COC1 (stereo partly drawn) [Example 98, 2-(2,6-dioxopiperidin-3-yl)-5-(9-{[(3R)-1-{[2-(3-{3-[(4-methyl-4H-1,2,4-triazol-3-yl)methyl]oxetan-3-yl}phenyl)-3-oxo-7-(trifluoromethyl)-2,3-dihydro-1H-isoindol-5-yl]methyl}piperidin-3-yl]methyl}-3,9-diazaspiro[5.5]undecan-3-yl)-2,3-dihydro-1H-isoindole-1,3-dione]
